# Assay results from patent US20070224167A1, “Novel HCV inhibitor combinations and methods” (priority 2006, published 2007).
# “Also recorded” adds a separate entry of the source.
# Experiments:
# [1] = system: replicons containing HCV NS3 protease mutations T54A, A156S, A156T, V170A; test: HCV-796 cross-resistance study, 3-day replicon assay on replicons with NS3 protease resistance mutations; format: cell-based; details: V170A vs wild type
# Description: Replicon cells are seeded at ˜5000 cells/well in 96-well collagen I-coated Biocoat plates (Becton Dickinson). Twenty-four hrs post-seeding, inhibitors diluted in DMSO are added to replicon cells (Huh-7 cells). The final concentrations of DMSO and fetal bovine serum are 1% and 10%, respectively. SCH 503034 is serially diluted at 1:2 for a 10-point titration. To each concentration of the SCH 503034, the second inhibitor, HCV-796 or rhIFN-α2b control is titrated in. IFN-α is serially diluted at 1:3, whereas HCV RNA polymerase inhibitor, HCV-796, is serially diluted at 1:2. […] All samples are tested in triplicate. Media and inhibitors are refreshed daily for 3 days at which point the cells are washed with PBS and lysed in 1× cell lysis buffer (Ambion cat #8721). The replicon RNA level is measured using real time PCR (Taqman assay) The amplicon is located in 5B. The PCR primers are: 5B.2F, ATGGACAGGCGCCCTGA (SEQ ID NO:1) and 5B.2R, […] (SEQ ID NO:2). The probe sequence is FAM-labeled CACGCCATGCGCTGCGG (SEQ ID NO:3). GAPDH RNA is used as an endogenous control and is amplified in the same reaction as NS5B (multiplex PCR) using primers and VIC-labeled probe recommended by the manufacturer (PE Applied Biosystem). […]
# HCV 1a H77 replicon = test: Intracellular antiviral activity in HCV replicon, genotype 1a; format: cell-based, HCV genotype 1a; details: Hepatitis C virus, 72 h, read-out: HCV RNA EC50
# Description: HCV genotype 1b, BB7 replicon-containing cell line is derived from a human hepatoma cell line (Huh7). A genotype 1a (H77 isolate; GenBank Accession #AF009606) is derived from replicon-containing cell line (Huh7-1a). The cell lines are cultured at 37° C. and 5% CO2 in Dulbecco's Modified Eagle Media (D-MEM; Invitrogen #11965-084) containing 10% fetal bovine serum (FBS; HyClone #SH300070) supplemented with 1% penicillin/streptomycin (Invitrogen #15140-122), 1% non-essential amino acids (Invitrogen #11140-050), 0.66 mM HEPES buffer, pH 7.55 (Invitrogen #15630-080), and 1 mg/mL G418 (Geneticin®, Invitrogen #11811-031 or #10131-027). […]
# At the end of the incubation period, the replicon-containing cells are lysed in 150 μL of lysis buffer provided in the RNeasy 96 Kit (Qiagen #74181). […] For duplexed RT-PCR quantifying both HCV RNA and 18S rRNA, 0.08 μM rRNA forward primer, 0.1 μM rRNA reverse primer, and 0.2 μM rRNA probe are added (ABI #4308329). […]
# The amounts of the HCV and 18S ribosomal RNAs in each sample are estimated by comparing the Ct cycles with those in the corresponding standard curves. […] The total RNA that is used for preparing the standard curve of the rRNA is quantified by O.D.260 measurement. Compound dose response is measured in a 10-point, 3-fold serial dilution series performed in triplicates and subjected to the same corresponding RT-PCR conditions as described above. […]
SMILES,Activity of HCV-796 on SCH 503034 resistant replicon cell lines [1],EC50 (HCV 1a H77 replicon)
"CNC(=O)c1c(-c2ccc(F)cc2)oc2cc(N(CCO)S(C)(=O)=O)c(C3CC3)cc12 [HCV-796, 5-cyclopropyl-2-(4-fluoro-phenyl)-6-[(2-hydroxy-ethyl)-methanesulfonyl-amino]-benzofuran-3-carboxylic acid methylamide]",identical to that observed against the wild-type replicon; also recorded: active,0.0025 ± 0.0017 µM
"CC(C)(C)NC(=O)N[C@H](C(=O)N1C[C@H]2[C@@H]([C@H]1C(=O)NC(CC1CCC1)C(=O)C(N)=O)C2(C)C)C(C)(C)C (stereo partly drawn) [SCH 503034, (1R,5S)—N-[3-amino-1-(cyclobutylmethyl)-2,3-dioxopropyl]-3-[2(S)-[[[(1,1-dimethylethyl)amino]carbonyl]amino]-3,3-dimethyl-1-oxobutyl]-6,6-dimethyl-3-azabicyclo[3.1.0]hexan-2(S)-carboxamide]",–,0.188 ± 0.018 µM
